Our source for the IC50 values is US9315499B2, “Cytomegalovirus inhibitor compounds” (Boehringer Ingelheim International GmbH, priority 2012, dated 2016).

For the assay, the target named is HCMV polymerase (UL54) (Human cytomegalovirus (strain AD169) (HHV-5) (Human herpesvirus 5), UniProt P08546). In words: biochemical. Particulars: LANCE TR-FRET, purified recombinant GST-UL54; read-out: Example C (IC50 nM). How it is done:
HCMV Polymerase LANCE TR-FRET Assay
This non-radiometric assay determines the enzymatic activity of purified recombinant HCMV polymerase (UL54) using a Digoxigenin-labeled oligonucleotide priming a heteropolymeric template. The enzymatic activity is determined by incorporating Biotin-dUTP in the nascent complementary strand. The signal is generated by Fluorescence Resonance Energy Transfer from the donor (Anti-Digoxigenin-Europium Chelate binding with the primer) to the acceptor Streptavidin-AlloPhycoCyanin (SA-APC) binding to the biotin of the labeled nucleotides incorporated in proximity.
Serial dilutions of the DMSO stock compound solution are performed using DMSO in columns 2-11 and 14-23. DMSO alone is present in columns 1, 12, 13 and 24. Three μL of the DMSO serial dilutions is transferred and diluted using 21 μL of compound dilution buffer (10 mM Hepes pH 7.5, 25 mM KCl, 5 mM MgCl2, 1 mM TCEP) to obtain 12.5% DMSO. 4 μL per well of the 12.5% DMSO serial dilution compound solution is added to the assay plate. The plate is centrifuged at 200×g for 30 sec. […]
To perform the assay, 3 μL of the enzyme solution is added to columns 2-12 and 14-24. […] The signal is read on the Envision plate reader (Perkin-Elmer) or equivalent.
In general terms: Time-resolved FRET reads energy transfer from a long-lived donor to a nearby acceptor.

For the compound `O=C(NCc1ccc(Cl)cc1)c1cc2cccnc2n(CC(=O)N2CCC(C(=O)O)C2)c1=O` (centres unmarked) [Compound 1029], the IC50 (as a rule, the midpoint of a concentration-inhibition curve) came to 6200 nM.

Take `Nc1c(Br)cnc2c1cc(C(=O)NCc1ccc(Cl)cc1)c(=O)n2CC(=O)N1CCC(CO)C1` (centres unmarked) [Compound 6022]: the IC50 worked out at 83 nM.
